The values below come from PMC10969560, “Eye Drop with Fas-Blocking Peptide Attenuates Age-Related Macular Degeneration” (Cells, 2024).

Data set [1] concerns NaIO3-induced retinal degeneration mice. In words: TUNEL assay in NaIO3-induced retinal degeneration mouse model. In kind it is in vivo, BALB/c mice. Conditions: eye drop application, N=3, Figure 3C. How it is done: (§1) To confirm the therapeutic effect of 6R-FBP, histological evaluation was conducted through hematoxylin and eosin (H&E) staining and the TUNEL assay. The eyes were fixed with 4% paraformaldehyde in PBS at room temperature for 20 min. After fixation, the eyes were sequentially incubated in 10%, 20%, and 30% (w/v) sucrose solution diluted in PBS for 30 min each at room temperature. Subsequently, the eyeballs were sagittally halved with a razor blade and embedded in Tissue-Tek® OCT Compound, and then frozen immediately in a liquid nitrogen chamber. Trimming was minimized to maintain controlled distances and ensure consistency, and sections were sliced at a thickness of 10 μm. Sections from the eye cryoblock were used for H&E staining and the TUNEL assay. The TUNEL assay was conducted according to the manufacturer’s protocol using the TUNEL assay kit (Abcam).

Data set [2] has the same test system. In words: H&E histology in NaIO3-induced retinal degeneration mouse model. In kind it is in vivo, BALB/c mice. Conditions: eye drop application, NaIO3 30 mg/kg i.v., peptides 10 mg/mL (50 μg/5 μL), N=3, Figure 3B. How it is done:
as §1

The test system is the same in data set [3]. In words: In vivo real-time PCR of eye posterior hemisphere in NaIO3-induced retinal degeneration mouse model. Also noted: species or system BALB/c mice. To be noted: eye drop application, N=3, Figure 3D; for expression of Fas receptor, inflammatory cytokines, and macrophages compared to the mock group (qPCR): posterior hemisphere. The text has this: The mouse eye posterior hemisphere was dissected using Vannas scissors. Subsequently, total RNA was extracted from the posterior hemisphere of the left eye using the RNAiso kit (Takara). RNA was reverse-transcribed with the High-Capacity cDNA Reverse Transcription Kit (Applied Biosystems, Waltham, MA, USA) and quantified using PowerUp™ SYBR™ Green Master Mix (Thermo Fisher Scientific, Waltham, MA, USA) on an ABI 7500 Fast Real-Time PCR system (Applied Biosystems, Waltham, MA, USA). Relative expression was determined using the ΔΔCt method, normalized against GAPDH mRNA levels. The primer sequences used are depicted in Table 2.
For orientation: In qPCR the cycle at which signal appears reflects the starting amount.

In data set [4] the test system is Fas-expressing Jurkat cells. In words: Size-dependent FBP binding test in Jurkat cells (flow cytometry). Conditions: N=3, Figure S4A. An excerpt:
(§2) Figure S4. Size- dependent FBP binding test in Jurkat cells. (A) Size- dependent FBP flow cytometry analysis of binding in Jurkat cells. (B) Size-dependent FBP flow cytometry analysis of apoptosis in Jurkat cells. The data are pres en ted as the mean ± SD (N=3 per group). *P<0.05, ***P<0.001, and ns indicates not
(A flow cytometer gives signals particle by particle.)

For a further data set, the system named is Jurkat cells. In words: Flow cytometry analysis of Fas/FasL-mediated apoptosis in Jurkat cells. In kind it is cell-based. To be noted: N=3, Figure S4B.
Excerpt: as §2

The subject of data set [5] is NaIO3-induced retinal degeneration mice. To be noted: mouse, in vivo.
Method: Retinal degeneration was induced by intravenous injection of NaIO3 (30 mg/kg) in 6-week-old male BALB/c mice (N = 3 per group), weighing 18–22 g (Orient Bio, Seoul, Korea). The eye drop administration group received peptides dissolved in PBS at dosages of 10 mg/mL (50 μg/5 μL) per ocular instillation. For intravitreal administration, peptide solutions dissolved in PBS were administered into the vitreous humor at a concentration of 1 mg/mL (1 μg/1 μL) per administration.
The N-terminal of the target peptide was fluorescently tagged using Alexa Fluor™ 647 NHS Ester (Succinimidyl Ester) (Invitrogen, Carlsbad, CA, USA), following the manufacturer’s protocol. Subsequently, free dye molecules were removed through a PD-10 desalting column (GE Healthcare, Milwaukee, WI, USA). Seven days after induction with NaIO3, Alexa647-conjugated peptides were administered via eye drops. Twelve hours after the last administration, organs were harvested for experiments, and Alexa647 signals were detected on whole organs using a FOBI imaging machine ([sequence], Cheongju, Republic of Korea).
For IHC, eyes were harvested and embedded in the Tissue-Tek® OCT Compound (Sakura Finetek Europe BV, Alphen aan den Rijn, The Netherlands) to prepare cryoblocks for cryosectioning. After freezing the eyes in the Tissue-Tek® OCT Compound, the eyes were cryosectioned to a thickness of 10 μm and mounted with ProLong™ Glass Antifade Mountant with NucBlue™ Stain (Invitrogen). The anti-Fas rabbit mAb (#4233S, Cell Signaling Technology, Danvers, MA, USA) was used to capture the Fas receptor, and the Fas antibody was subsequently detected using Goat Anti-Rabbit IgG H&L (Alexa Fluor® 488) (ab150077, Abcam, Cambridge, UK). A ZEISS Axio Scan.Z1 Slide Scanner (Carl Zeiss, Oberkochen, Germany) was employed to detect NucBlue™ stained cell nuclei and the Alexa647-conjugated peptide signals.
The subject of data set [6] is ARPE-19 cells. The data set is described as follows: Annexin V/PI flow cytometry apoptosis analysis in NaIO3-treated ARPE-19 cells. In kind it is cell-based, human. Conditions: ARPE-19, NaIO3 10 mM + peptide 700 μM, 24 h; N=3; Figure 1B. The method, then:
The efficacy of FBP on the inhibition of ARPE-19 cell apoptosis was assessed through annexin V/propidium iodide (PI) staining, followed by flow cytometry analysis. […] After 24 h of treatment with NaIO3 (10 mM) and the FBP peptide (700 μM), the cells were harvested and stained using the Dead Cell Apoptosis Kits with annexin V for Flow Cytometry (Invitrogen, Carlsbad, CA, USA), following the manufacturer’s protocol. The stained cells were collected and analyzed using a BD FACSCalibur™ system (Becton Dickinson, Franklin Lakes, NJ, USA).

The test system of the next data set is Fas. In words: RT-PCR of Fas expression in NaIO3-treated ARPE-19 cells. The data set is classed as cell-based, human. To be noted: ARPE-19, NaIO3 10 mM + peptide 700 μM, 24 h; N=3; Figure 1A. How it is done: After 24 h of treatment with NaIO3 (10 mM) and the FBP peptide (700 μM), the cells were harvested for analysis. Total RNA from the ARPE-19 cells was extracted using the RNAiso kit (Takara, Kyoto, Japan). Total RNA was reverse-transcribed into cDNA using the High-Capacity cDNA Reverse Transcription Kit (Applied Biosystems, Waltham, MA, USA). The quantification of gene expression was performed using PowerUp™ SYBR™ Green Master Mix (Thermo Fisher Scientific, Waltham, MA, USA) on an ABI 7500 Fast Real-Time PCR system (Applied Biosystems, Waltham, MA, USA). The sequences of primer pairs used for real-time PCR are depicted in Table 2.

In the next data set the test system is cleaved caspase-3 and 8. In words: Western blot of apoptosis-related proteins in NaIO3-treated ARPE-19 cells. In kind it is cell-based, human. To be noted: ARPE-19, NaIO3-treated; Figure 1C. The method, then: Total protein samples were extracted from ARPE-19 cells using ice-cold RIPA buffer containing a protease inhibitor cocktail. A 4× sample buffer containing Tris-(2-Carboxyethyl)phosphine (Invitrogen, Carlsbad, CA, USA) was prepared by mixing 950 µL of 4× Laemmli sample buffer (GenDEPOT) with 50 µL of Tris-(2-Carboxyethyl)phosphine (Invitrogen). Protein samples (15 μg) were diluted in the sample buffer and heated at 95 °C for 5 min. The samples were then loaded onto a 12% SDS-PAGE gel and transferred onto a PVDF transfer membrane. The blots were probed with rabbit anti-cleaved caspase-3 (1:1000, Abcam, Cambridge, UK, ab52293), anti-cleaved caspase-8 (1:1000, Abcam, ab25901) and rabbit polyclonal anti-Fas (1:1000, Abcam, ab82419). Secondary polyclonal antibodies were probed with rabbit IgG coupled to HRP (1:2000, Abcam, ab97051). Finally, the blots were developed using ECL Western blotting substrate (Promega, Madison, WI, USA).

Data set [7] deals with NaIO3-induced retinal degeneration rabbits. In words: H&E staining, ONL to total retinal thickness, in NaIO3-induced retinal degeneration rabbits. The data set is classed as in vivo, chinchilla rabbits. To be noted: rabbit, eye drops twice daily; Day 14; N=4; Figure 4D. How it is done: (§3) The efficacy of the treatment was evaluated through an experiment conducted by KNOTUS, a contract research organization. In brief, retinal degeneration was induced by intravenous injection of NaIO3 (60 mg/kg) in 20 chinchilla rabbits, weighing 2 kg.
(§4) The eye drop administration group received dosages of 5 mg/mL (250 μg/50 μL) per ocular instillation. For intravitreal administration, peptide solutions (5 mg/mL) were administered in increments of 40 μL per administration. A pipette was used to administer the test substance onto the central cornea of the right eye for each experimental group.
(§5) Anesthetized animals were administered the test substance via subconjunctival injection into the right eye using a 31-gauge syringe needle attached to a syringe. In the case of eye drop administration, the peptides and PBS were administered twice daily for 2 weeks, for a total of 28 administrations. For intravitreal administration, a single dose of the peptide was administered the day after the NaIO3 injection.
On the concluding day of the experiment (Day 14), the animals were anesthetized using the previously described mixture of Zoletil®50 and Rompun^TM, after which they were sacrificed. NaIO3-induced retinal degeneration eyes were then extracted, and the central cornea was punctured using an injection needle. Subsequently, the specimens were fixed in a 10% neutral buffered formalin solution. For histopathological examination, the fixed tissues were subjected to processes such as fixation, dehydration, paraffin embedding, and sectioning. H&E staining was then performed, and the proportion (%) of the thickness of the outer nuclear layer (ONL) to the overall retinal thickness was calculated using an Olympus BX-53 optical microscope (Olympus, Tokyo, Japan). Two slides were prepared per eyeball relative to the optic nerve. Measurements were taken at three points on each slide, amounting to a total of six values, which were averaged.

The test system of data set [8] is ARPE-19 cells.
Method: To confirm the cytotoxicity of CPP-conjugated FBP (4R-FBP, 5R-FBP, 6R-FBP, 9R-FBP) on ARPE-19 cells, the cells were plated in a 12-well plate at a density of 2 × 10^5/mL. After 24 h of treatment with various peptides (4R-FBP, 5R-FBP, 6R-FBP, 9R-FBP, and FBP), the CCK-8 assay was performed as per the manufacturer’s protocol.
Peptide toxicity was assessed
using CCK-8 assay in ARPE-19 cell. The data are presented as the mean ± SD (N=3 per group). ns
For data set [9], the system named is NaIO3-induced retinal degeneration rabbits. The data set is described as follows: Fundus imaging of RPE degenerated area in NaIO3-induced retinal degeneration rabbit model. In kind it is in vivo, chinchilla rabbits. To be noted: NaIO3 60 mg/kg i.v., eye drops 5 mg/mL (250 μg/50 μL) twice daily for 14 days, N=4, Figure 4B. How it is done:
as §3, §4, §5
Before the administration of NaIO3 (Day 0) and upon concluding the experiment (Day 14), the right eyes of the rabbits were treated with a mydriatic agent (1% midriacyl eye drops). Subsequently, the rabbits were anesthetized with a mixture of Zoletil®50 (Virbac, Carros, France) and Rompun^TM (Bayer AG, Leverkusen, Germany) through intravenous injection (marginal ear vein) at a dosage of 0.1 mL/kg. Fundus imaging was conducted using a fundus camera (TRC-50IX, TOPCON, Tokyo, Japan). The retinal images were analyzed using Image J software version 1.54d (NIH, Bethesda, MD, USA) to determine the area of degeneration in the RPE, with the RPE injury area being manually selected. The total area of the retina, excluding the optic nerve region, was defined as the total area. The proportion of degenerated area was calculated as a percentage using Equation (1). Degenerated area (%) = Degenerated area/Total area(1)

In the case of `C[C@@H]1C[C@H]2[C@@H]3CCC4=CC(=O)C=C[C@]4(C)[C@@]3(F)[C@@H](O)C[C@]2(C)[C@@]1(O)C(=O)CO` [Dexa, dexamethasone, reference compound], in data set [1], the “apoptosis levels in retina (TUNEL)” value was “lower apoptosis levels”. In data set [2], the “therapeutic effect on integrity of the retinal layer (H&E staining)” value (from here on “therapeutic effect on integrity”) is reported as “therapeutic effects”. In [3], the “levels of M2 macrophages compared to the mock group (qPCR, CD206)” value is reported as “increased levels”; the “expression of Fas receptor, inflammatory cytokines, and macrophages compared to the mock group (qPCR)” value is “decreased expression”.
As for “CDEHF [5-mer, 5-mer truncated FBP, CDEHF]”, in data set [4], the “binding to Fas-expressing Jurkat cells” value is listed as “demonstrated binding”. In the data set on Jurkat cells, the “inhibition of Fas/FasL-mediated apoptosis” value is reported as “could not inhibit”.
Turning to DEHF [4-mer, 4-mer truncated FBP, DEHF], the “size-dependent retinal delivery (confocal, Alexa647 signal)” value in data set [5] is “successfully delivered”. Also, in data set [4], the “binding to Fas-expressing Jurkat cells” value is “demonstrated binding”. In the data set with Jurkat cells, the “inhibition of Fas/FasL-mediated apoptosis” value is reported as “could not inhibit”.
“GGGRRGGG [Ctrl, nonspecific control peptide, GGGRRGGG, reference compound]”: the “apoptosis (annexin V/PI staining) compared with mock group” value with ARPE-19 cells [6] is “no protective effects against apoptosis”. Further, the “apoptosis levels in retina (TUNEL)” value in data set [1] was “higher apoptosis levels”. The “expression of Fas (RT-PCR)” value with Fas is recorded as “increased”. Also, the “therapeutic effect on integrity” value in data set [2] is “no therapeutic effect”. Moreover, the “levels of cleaved caspase-3 and 8 (Western blot)” value in the data set with cleaved caspase-3 and 8 is given as “upregulation”.
“RRRRRRGGGGYCDEHFCY [6R-FBP, hexa-arginine (6R) conjugated with FBP]”: the “apoptosis levels in retina (TUNEL)” value in data set [1] is “lower apoptosis levels”. Moreover, the “proportion of thickness of ONL to total retinal thickness compared with mock group (H&E)” value in data set [7] is reported as “maintenance of the ONL”. Besides, the “toxicity of CPP-conjugated FBP in retinal cells” value with ARPE-19 cells [8] was “lower toxicity”. Moreover, the “size-dependent retinal delivery (confocal, Alexa647 signal)” value in data set [5] was “robust fluorescence signals”. Also, the “therapeutic effect on integrity” value in [2] is recorded as “therapeutic effects”. For the same compound, in data set [9], the “RPE degeneration compared with mock treatment (fundus imaging)” value was “significant reduction in RPE degeneration”. In data set [3], the “levels of M2 macrophages compared to the mock group (qPCR, CD206)” value was “increased levels”; the “expression of Fas receptor, inflammatory cytokines, and macrophages compared to the mock group (qPCR)” value is listed as “decreased expression”.
